Measurements: the NIST ThermoML archive (doi:10.1021/je030130y)

How the values were obtained:
[1] = xn = mol fraction of the nth substance listed; conditions: 101.3 kPa, Liquid; for viscosity: Capillary tube (Ostwald / Ubbelohde) method; for mass density: Pycnometric method
[2] = 101.3 kPa, Liquid; for viscosity: Capillary tube (Ostwald / Ubbelohde) method; for mass density: Pycnometric method

c1ccccc1 [benzene] + Clc1ccccc1
[1], x1 = 1
Conditions | mass density [kg/m3] | viscosity [mPa·s]
298.15 K | 873.4 | 0.603
303.15 K | 868.2 | 0.568
308.15 K | 862.9 | 0.531
313.15 K | 857.4 | 0.5

CN(C)C=O [dimethylformamide] + Clc1ccccc1
[1], x1 = 1
Conditions | mass density [kg/m3] | viscosity [mPa·s]
298.15 K | 944.5 | 0.803
303.15 K | 939.8 | 0.756
308.15 K | 935.1 | 0.71
313.15 K | 930.2 | 0.673

CN(C)C=O [dimethylformamide]
[2]
Conditions | mass density [kg/m3] | viscosity [mPa·s]
298.15 K | 944.5 | 0.803
303.15 K | 939.8 | 0.756
308.15 K | 935.1 | 0.71
313.15 K | 930.2 | 0.673

c1ccccc1 [benzene] + CN(C)C=O
[1], x2 = 0
Conditions | mass density [kg/m3] | viscosity [mPa·s]
298.15 K | 873.4 | 0.603
303.15 K | 868.2 | 0.568
308.15 K | 862.9 | 0.531
313.15 K | 857.4 | 0.5

Clc1ccccc1 [chlorobenzene]
[2]
Conditions | mass density [kg/m3] | viscosity [mPa·s]
298.15 K | 1100.9 | 0.756
303.15 K | 1095.8 | 0.714
308.15 K | 1090.8 | 0.673
313.15 K | 1085.1 | 0.635

c1ccccc1 [benzene]
[2]
Conditions | mass density [kg/m3] | viscosity [mPa·s]
298.15 K | 873.4 | 0.603
303.15 K | 868.2 | 0.568
308.15 K | 862.9 | 0.531
313.15 K | 857.4 | 0.5
